Experimental data from patent publication US7635664B2, “Herbicidal substituted benzoylpyrazoles” (Bayer CropScience AG, priority 2001, dated 2009).

Assays:
[1] = logP determination by HPLC on reversed-phase column, acidic range; format: physicochemical; conditions: for chromatographic logP: reversed-phase C18 HPLC column, pH=2.3; for logP a): 0.1% aqueous phosphoric acid, acetonitrile gradient
Text: (a) Mobile phases for the determination in the acidic range: 0.1% aqueous phosphoric acid, acetonitrile; linear gradient from 10% acetonitrile to 90% acetonitrile—the corresponding measurement results in Table 1 are marked ^a).

weeds = assay: Pre-emergence test (Example A), weeds; format: in vivo; conditions: soil sprayed 24 hours after sowing; rated after three weeks as % damage vs untreated control
Description: To produce a suitable preparation of active compound, 1 part by weight of active compound is mixed with the stated amount of solvent, the stated amount of emulsifier is added and the concentrate is diluted with water to the desired concentration.
Seeds of the test plants are sown in normal soil. After 24 hours, the soil is sprayed with the preparation of active compound such that the particular amount of active compound desired is applied per unit area. The concentration of active compound in the spray liquor is chosen such that the particular amount of active compound desired is applied in 1000 liters of water per hectare.
After three weeks, the degree of damage to the plants is rated in % damage in comparison to the development of the untreated control. The figures denote: • 0%=no effect (like untreated control) • 100%=total destruction

[2] = marked a): acidic range, 0.1% aqueous phosphoric acid/acetonitrile gradient, reversed-phase C 18 HPLC, 43° C.
[3] = HPLC reversed-phase column (C 18), 43° C., acidic range: 0.1% aqueous phosphoric acid, acetonitrile; marked a)
[4] = marked a): acidic range, 43° C.

Row | SMILES | logP [1, 2] | further results
1 | CON(C)C(=O)Nc1c(Cl)ccc(C(=O)c2cnn(C)c2O)c1Cl [Example 3] | (I-2) logP = 1.13^a) | activity against weeds, pre-emergence (weeds): strong activity
2 | CN1CCN(C(=O)Nc2c(Cl)ccc(C(=O)c3cnn(C)c3O)c2Cl)C1=O [Example 4] | (I-2) logP = 1.32^a) | activity against weeds, pre-emergence (weeds): strong activity
3 | CCn1ncc(C(=O)c2ccc(Cl)c(NC(=O)N3CCOCC3)c2Cl)c1O [Example 6] | (I-2) logP = 1.13^a) | activity against weeds, pre-emergence (weeds): strong activity
4 | CCn1ncc(C(=O)c2ccc(C(F)(F)F)cc2NC(=O)N(C)OC)c1O [Example 7] | (I-1) logP = 2.93^a) | 
5 | CON(C)C(=O)Nc1cc(C(F)(F)F)ccc1C(=O)c1cnn(C)c1O [Example 8] | (I-1) logP = 2.50^a) | 
6 | CN1CCCN(C(=O)Nc2c(Cl)ccc(C(=O)c3cnn(C)c3O)c2Cl)C1=O [Example 9] | (I-2) logP = 1.55^a) | 
7 | Cn1ncc(C(=O)c2ccc(Cl)c(NC(=O)N3CCOCC3)c2Cl)c1O [Example 10] | (I-2) logP = 0.82^a) | 
8 | CCn1ncc(C(=O)c2ccc(C(F)(F)F)cc2NC(=O)N2CCN(C)C2=O)c1O [Example 11] | (I-1) logP = 2.42^a) | 
9 | CCN1CCN(C(=O)Nc2c(Cl)ccc(C(=O)c3cnn(C)c3O)c2Cl)C1=O [Example 12] | (I-2) logP = 1.63^a) | 
10 | CCN1CCN(C(=O)Nc2c(Cl)ccc(C(=O)c3cnn(CC)c3O)c2Cl)C1=O [Example 13] | (I-2) logP = 1.86^a) | 
11 | CCn1ncc(C(=O)c2ccc(Cl)c(NC(=O)NN3CCOCC3)c2Cl)c1O [Example 14] | (I-2) logP = 1.25^a) | 
12 | Cn1ncc(C(=O)c2ccc(Cl)c(NC(=O)NN3CCOCC3)c2Cl)c1O [Example 15] | (I-2) logP = 1.03^a) | 
13 | Cn1ncc(C(=O)c2ccc(Cl)c(NC(=O)NN3CCCC3)c2Cl)c1O [Example 16] | (I-2) logP = 1.17^a) | 
14 | CN1CCN(C(=O)Nc2cc(C(F)(F)F)ccc2C(=O)c2cnn(C)c2O)C1=O [Example 17] | (I-1) logP = 2.12^a) | 
15 | CCN1CCCN(C(=O)Nc2c(Cl)ccc(C(=O)c3cnn(CC)c3O)c2Cl)C1=O [Example 18] | (I-2) logP = 2.11^a) | 
16 | CCN1CCCN(C(=O)Nc2c(Cl)ccc(C(=O)c3cnn(C)c3O)c2Cl)C1=O [Example 19] | (I-2) logP = 1.83^a) | 
17 | Cn1ncc(C(=O)c2ccc(Cl)c(NC(=O)NC3CC3)c2Cl)c1O [Example 21] | (I-2) logP = 0.99^a) | 
18 | Cn1ncc(C(=O)c2ccc(Cl)c(NC(=O)N3CCCC3)c2Cl)c1O [Example 24] | (I-2) logP = 1.18^a) | 
19 | CC(C)N1CCCN(C(=O)Nc2c(Cl)ccc(C(=O)c3cnn(C)c3O)c2Cl)C1=O [Example 33] | (I-2) logP = 2.11^a) | 
20 | Cn1ncc(C(=O)c2ccc(Cl)c(NC(=O)NCC3CCCO3)c2Cl)c1O (stereo not shown) [Example 41] | (I-2) logP = 1.10^a) | 
21 | Cn1ncc(C(=O)c2ccc(Cl)c(NC(=O)Nc3nnc(C(F)(F)F)s3)c2Cl)c1O [Example 47] | (I-2) logP = 1.99^a) | 
22 | CCn1ncc(C(=O)c2ccc(Cl)c(N(C)C(=O)N3CCN(C)C3=O)c2Cl)c1O [Example 99] | (I-2) logP = 1.40^a) | 

Row | SMILES | logP [1, 2] | further results
23 | CCn1ncc(C(=O)c2ccc(Cl)c(NC(=O)NN3CCCC3)c2Cl)c1O [Example 100] | (I-2) logP = 1.42^a) | 
24 | CCn1ncc(C(=O)c2ccc(Cl)c(NC(=O)N3CCCN(C(C)C)C3=O)c2Cl)c1O [Example 101] | (I-2) logP = 2.42^a) | 
25 | CCn1ncc(C(=O)c2ccc(Cl)c(NC(=O)N3CCCN(C4CCCCC4)C3=O)c2Cl)c1O [Example 102] | (I-2) logP = 3.30^a) | 
26 | CCn1ncc(C(=O)c2ccc(C(F)(F)F)cc2N(C)C(=O)N2CCN(C)C2=O)c1O [Example 103] | (I-1) logP = 1.78^a) | 
27 | CCn1ncc(C(=O)c2ccc(Cl)c(NC(=O)NC3CC3)c2Cl)c1O [Example 104] | (I-2) logP = 1.25^a) | 
28 | CCn1ncc(C(=O)c2ccc(Cl)c(NC(=O)NCC3CCCO3)c2Cl)c1O (stereo not shown) [Example 105] | (I-2) logP = 1.33^a) | 
29 | CCn1ncc(C(=O)c2ccc(Cl)c(NC(=O)N3CCCCC3)c2Cl)c1O [Example 106] | (I-2) logP = 1.75^a) | 
30 | Cn1ncc(C(=O)c2ccc(Cl)c(NC(=O)N3CCCCC3)c2Cl)c1O [Example 107] | (I-2) logP = 1.50^a) | 
31 | CCn1ncc(C(=O)c2ccc(Cl)c(NC(=O)NOC)c2Cl)c1O [Example 108] | (I-2) logP = 1.06^a) | 
32 | CONC(=O)Nc1c(Cl)ccc(C(=O)c2cnn(C)c2O)c1Cl [Example 109] | (I-2) logP = 0.72^a) | 
33 | CCn1ncc(C(=O)c2ccc(Cl)c(NC(=O)N3CCCC3)c2Cl)c1O [Example 110] | (I-2) logP = 1.52^a) | 
34 | CCn1ncc(C(=O)c2ccc(NC(=O)N3CCN(C)C3=O)cc2OC)c1O [Example 111] | (I-3) logP = 1.74^a) | 
35 | CCONC(=O)Nc1c(Cl)ccc(C(=O)c2cnn(C)c2O)c1Cl [Example 127] | (I-2) logP = 1.07^a) | 
36 | CCONC(=O)Nc1c(Cl)ccc(C(=O)c2cnn(CC)c2O)c1Cl [Example 128] | (I-2) logP = 1.33^a) | 
37 | CCn1ncc(C(=O)c2ccc(Cl)c(NC(=O)C3=NOCC3)c2Cl)c1O [Example 148] | (I-2) logP = 1.45^a) | 
38 | Cn1ncc(C(=O)c2ccc(Cl)c(NC(=O)C3=NOCC3)c2Cl)c1O [Example 149] | (I-2) logP = 1.18^a) | 
39 | CCn1ncc(C(=O)c2ccc(Cl)c(NC(=O)c3ccco3)c2Cl)c1O [Example 156] | (I-2) logP = 1.54^a) | 
40 | Cn1ncc(C(=O)c2ccc(Cl)c(NC(=O)N3CCCO3)c2Cl)c1O [Example 161] | (I-2) logP = 1.11^a) | 
41 | CCn1ncc(C(=O)c2ccc(Cl)c(NC(=O)N3CCCO3)c2Cl)c1O [Example 162] | (I-2) logP = 1.38^a) | 
42 | CCn1ncc(C(=O)c2ccc(Cl)c(N(C)C(=O)N3CCN(C)C3=O)c2Cl)c1O [Example 171] | (I-2) logP = 2.88^a) | 
43 | CCn1ncc(C(=O)c2ccc(Cl)c(NC(=O)NN3CCCCC3)c2Cl)c1O [Example 172] | (I-2) logP = 1.96^a) | 
44 | Cn1ncc(C(=O)c2ccc(Cl)c(NC(=O)NN3CCCCC3)c2Cl)c1O [Example 173] | (I-2) logP = 1.70^a) | 

Row | SMILES | logP [1, 2] | further results
45 | CCn1ncc(C(=O)c2ccc(Cl)c(NC(=O)Nc3nnc(C)o3)c2Cl)c1O [Example 174] | (I-2) logP = 1.20^a) | 
46 | CCn1ncc(C(=O)c2ccc(Cl)c(NC(=O)Nc3nnc(C(F)(F)F)s3)c2Cl)c1O [Example 175] | (I-2) logP = 2.24^a) | 
47 | CCn1ncc(C(=O)c2ccc(Cl)c(NC(=O)N=c3sccn3C)c2Cl)c1O [Example 176] | (I-2) logP = 1.39^a) | 
48 | Cn1ncc(C(=O)c2ccc(Cl)c(NC(=O)N=c3sccn3C)c2Cl)c1O [Example 177] | (I-2) logP = 1.13^a) | 
49 | CCn1ccsc1=NC(=O)Nc1c(Cl)ccc(C(=O)c2cnn(C)c2O)c1Cl [Example 178] | (I-2) logP = 1.43^a) | 
50 | CCn1ncc(C(=O)c2ccc(Cl)c(NC(=O)N=c3sccn3CC)c2Cl)c1O [Example 179] | (I-2) logP = 1.72^a) | 
51 | CCn1ncc(C(=O)c2ccc(Cl)c(NC(=O)NCC(OC)OC)c2Cl)c1O [Example 180] | (I-2) logP = 1.13^a) | 
52 | CCn1ncc(C(=O)c2ccc(Cl)c(NC(=O)N3CCCCO3)c2Cl)c1O [Example 181] | (I-2) logP = 1.63^a) | 
53 | Cn1ncc(C(=O)c2ccc(Cl)c(NC(=O)N3CCCCO3)c2Cl)c1O [Example 182] | (I-2) logP = 1.36^a) | 
54 | CCn1nc(C)c(C(=O)c2ccc(Cl)c(NC(=O)N3CCCCO3)c2Cl)c1O [Example 183] | (I-2) logP = 1.53^a) | 
55 | Cc1nn(C)c(O)c1C(=O)c1ccc(Cl)c(NC(=O)N2CCCCO2)c1Cl [Example 184] | (I-2) logP = 1.34^a) | 
56 | Cc1nn(C)c(O)c1C(=O)c1ccc(Cl)c(NC(=O)N2CCCO2)c1Cl [Example 185] |  | logP [1, 3]: (I-2) logP = 1.10^a)
57 | CCn1nc(C)c(C(=O)c2ccc(Cl)c(NC(=O)N3CCCO3)c2Cl)c1O [Example 186] |  | logP [1, 3]: (I-2) logP = 1.31^a)
58 | CN1CCN(C(=O)Nc2c(Cl)ccc(C(=O)O)c2Cl)C1=O [III-1, 2,4-dichloro-3-[[(3-methyl-2-oxo-1-imidazolidinyl)-carbonyl]-amino]-benzoic acid] |  | chromatographic logP [1]: 1.35
59 | COC(=O)c1ccc(Cl)c(NC(=O)N2CCN(C)C2=O)c1Cl [IIIa-1, methyl 2,4-dichloro-3-[[(3-methyl-2-oxo-1-imidazolidinyl)-carbonyl]-amino]-benzoate] |  | chromatographic logP [1]: 1.94
60 | COC(=O)c1ccc(Cl)c(NC(=O)N2CCOCC2)c1Cl [IIIa-6] |  | logP a) [1, 4]: logP = 1.34^a)
61 | COC(=O)c1ccc(Cl)c(NC(=O)NN(C)C)c1Cl [IIIa-7] |  | logP a) [1, 4]: logP = 1.64^a)
62 | COC(=O)c1ccc(Cl)c(NC(=O)N2CCN(C)CC2)c1Cl [IIIa-8] |  | logP a) [1, 4]: logP = 0.50^a)
63 | COC(=O)c1ccc(C(F)(F)F)cc1NC(=O)N(C)OC [IIIa-9] |  | logP a) [1, 4]: logP = 3.35^a)
64 | COC(=O)c1ccc(C(F)(F)F)cc1NC(=O)N1CCN(C)C1=O [IIIa-10] |  | logP a) [1, 4]: logP = 2.76^a)
